Key:
[1] = relative permittivity at zero frequency (dimensionless); xn = mol fraction of the nth substance listed; conditions: 101 kPa, Liquid, Coaxial cylinder capacitor
[2] = refractive index (Na D-line) (dimensionless); xn = mol fraction of the nth substance listed; conditions: 101 kPa, Liquid, Standard Abbe refractometry

CN(CCO)CCO [N-methyldiethanolamine] + O=S1(=O)CCCC1
Conditions	refractive index, [2]	relative permittivity at zero frequency, [1]
293.15 K, x1 = 0.1001	1.48265	40.8
293.15 K, x1 = 0.2012	1.48037	38.3
293.15 K, x1 = 0.2999	1.47845	35.5
293.15 K, x1 = 0.4003	1.4766	33.5
293.15 K, x1 = 0.5005	1.47489	31.7
293.15 K, x1 = 0.6	1.47343	30.2
293.15 K, x1 = 0.7002	1.47207	28.4
293.15 K, x1 = 0.8011	1.47093	26.6
293.15 K, x1 = 0.8998	1.47017	24.6
293.15 K, x1 = 1	1.46935	22.9
298.15 K, x1 = 0.1001	1.48095	40.1
298.15 K, x1 = 0.2012	1.47872	37.6
298.15 K, x1 = 0.2999	1.47672	34.8
298.15 K, x1 = 0.4003	1.47488	32.8
298.15 K, x1 = 0.5005	1.47316	31
298.15 K, x1 = 0.6	1.47164	29.5
298.15 K, x1 = 0.7002	1.47023	27.7
298.15 K, x1 = 0.8011	1.469	26
298.15 K, x1 = 0.8998	1.46802	24.1
298.15 K, x1 = 1	1.46724	22.4
303.15 K, x1 = 0.1001	1.47886	39.4
303.15 K, x1 = 0.2012	1.4767	36.9
303.15 K, x1 = 0.2999	1.47473	34.1
303.15 K, x1 = 0.4003	1.47288	32.1
303.15 K, x1 = 0.5005	1.47124	30.3
303.15 K, x1 = 0.6	1.46976	28.8
303.15 K, x1 = 0.7002	1.46844	27
303.15 K, x1 = 0.8011	1.46717	25.3
303.15 K, x1 = 0.8998	1.46615	23.6
303.15 K, x1 = 1	1.46532	21.8
308.15 K, x1 = 0.1001	1.47712	38.7
308.15 K, x1 = 0.2012	1.47488	36.1
308.15 K, x1 = 0.2999	1.47281	33.4
308.15 K, x1 = 0.4003	1.47099	31.3
308.15 K, x1 = 0.5005	1.46931	29.5
308.15 K, x1 = 0.6	1.46777	28.1
308.15 K, x1 = 0.7002	1.46639	26.3
308.15 K, x1 = 0.8011	1.46513	24.6
308.15 K, x1 = 0.8998	1.46413	22.9
308.15 K, x1 = 1	1.4631	21.3
313.15 K, x1 = 0.1001	1.47549	38
313.15 K, x1 = 0.2012	1.47327	35.5
313.15 K, x1 = 0.2999	1.47109	32.7
313.15 K, x1 = 0.4003	1.46919	30.6
313.15 K, x1 = 0.5005	1.46741	28.7
313.15 K, x1 = 0.6	1.46584	27.4
313.15 K, x1 = 0.7002	1.46442	25.6
313.15 K, x1 = 0.8011	1.46301	24
313.15 K, x1 = 0.8998	1.46184	22.2
313.15 K, x1 = 1	1.46074	20.8
318.15 K, x1 = 0.1001	1.47376	37.4
318.15 K, x1 = 0.2012	1.47154	34.6
318.15 K, x1 = 0.2999	1.46941	32
318.15 K, x1 = 0.4003	1.46751	29.9
318.15 K, x1 = 0.5005	1.46573	28
318.15 K, x1 = 0.6	1.46414	26.7
318.15 K, x1 = 0.7002	1.46267	24.9
318.15 K, x1 = 0.8011	1.46127	23.3
318.15 K, x1 = 0.8998	1.46005	21.7
318.15 K, x1 = 1	1.45892	20.3
323.15 K, x1 = 0.1001	1.47203	36.7
323.15 K, x1 = 0.2012	1.46976	33.9
323.15 K, x1 = 0.2999	1.46769	31.3
323.15 K, x1 = 0.4003	1.46581	29.2
323.15 K, x1 = 0.5005	1.46403	27.3
323.15 K, x1 = 0.6	1.46242	26
323.15 K, x1 = 0.7002	1.46091	24.2
323.15 K, x1 = 0.8011	1.45949	22.7
323.15 K, x1 = 0.8998	1.45821	21.2
323.15 K, x1 = 1	1.45708	19.8
328.15 K, x1 = 0.1001	1.47021	36.2
328.15 K, x1 = 0.2012	1.46788	33.2
328.15 K, x1 = 0.2999	1.46596	30.6
328.15 K, x1 = 0.4003	1.46404	28.5
328.15 K, x1 = 0.5005	1.46226	26.5
328.15 K, x1 = 0.6	1.46061	25.2
328.15 K, x1 = 0.7002	1.45905	23.5
328.15 K, x1 = 0.8011	1.45761	22.1
328.15 K, x1 = 0.8998	1.45636	20.5
328.15 K, x1 = 1	1.45513	19.3
